The values that follow come from patent US20090197859A1 (Pfizer Inc., priority 2008, published 2009).

Data set [1] addresses T1, cloned human 5-HT6 receptor (Homo sapiens, UniProt P50406).
T1 construct: host or cells: HeLa cells, G-418 selection, membrane preparation
Kind of data set: 5-HT6 Receptor Binding Assay ([3H]-LSD radioligand, SPA). Conditions: for inhibition at 1 µM: read-out: 5HT6 % inh @ 1 uM. Here is the method: 5-HT6 Receptor Binding Assay
Hela cells containing the cloned human 5-HT6 receptor were acquired from Dr. David R. Sibley's laboratory in National Institute of Health (see Sibley, D. R., J. Neurochemistry, 66, 47-56, 1996). Cells were grown in high glucose Dulbecco's modified Eagle's medium, supplemented with L-glutamine, 0.5% sodium pyruvate, 0.3% penicillin-streptomycin, 0.025% G-418 and 5% Gibco fetal bovine serum and then were harvested, when confluent, in cold phosphate buffered saline.
Harvested intact cells were washed once in cold phosphate-buffered saline. The cells were pelleted and resuspended in 100 ml of cold 50 mM Tris, 5 mM EDTA and 5 mM EGTA, pH 7.4. Homogenization was with a Vir Tishear generator, 4 cycles for 30 seconds each at setting 50. The homogenized cells were centrifuged at […] for 10 minutes and the supernatant was removed. The pellet was resuspended in 100 ml of the above buffer and rehomogenized for 2 cycles. The rehomogenized cells were then centrifuged at […] for 10 minutes and the supernatant was removed. The combined supernatant (200 ml) was centrifuged at 23,000 RPM (80,000×g) for 1 hour in a Beckman Rotor (42.1 Ti). The membrane pellet was resuspended in […] of assay buffer containing HEPES 20 mM, MgCl2 10 mM, NaCl 150 mM, EDTA 1 mM, pH 7.4 and stored frozen in aliqouts at −70° C.
The radioligand binding assay used [^3H]-lysergic acid diethylamide (LSD). The assay was carried out in Wallac 96-well sample plates by the addition of 11 μl of the test sample at the appropriate dilution (the assay employed 11 serial concentrations of samples run in duplicate), 11 μl of radioligand, and 178 μl of a washed mixture of WGA-coated SPA beads and membranes in binding buffer. The plates were shaken for about 5 minutes and then incubated at room temperature for 1 hour. The plates were then loaded into counting cassettes and counted in a Wallac MicroBeta Trilux scintillation counter.
Binding Constant Determination may be obtained by performing serial dilutions, e.g., eleven dilutions, of test compounds into assay plates using the PE/Cetus Pro/Pette pipetter. These dilutions are followed by radioligand and the bead-membrane mixture prepared as described above. After obtaining the specifically bound cpm, the data are fit to a one-site binding model using GraphPad Prism ver. 2.0. Estimated IC50 values are converted to Ki values using the Cheng-Prusoff equation (Cheng, Y. C. et al., Biochem. Pharmacol., 22, 3099-108, 1973).

T1 sequence (P50406 whole entry): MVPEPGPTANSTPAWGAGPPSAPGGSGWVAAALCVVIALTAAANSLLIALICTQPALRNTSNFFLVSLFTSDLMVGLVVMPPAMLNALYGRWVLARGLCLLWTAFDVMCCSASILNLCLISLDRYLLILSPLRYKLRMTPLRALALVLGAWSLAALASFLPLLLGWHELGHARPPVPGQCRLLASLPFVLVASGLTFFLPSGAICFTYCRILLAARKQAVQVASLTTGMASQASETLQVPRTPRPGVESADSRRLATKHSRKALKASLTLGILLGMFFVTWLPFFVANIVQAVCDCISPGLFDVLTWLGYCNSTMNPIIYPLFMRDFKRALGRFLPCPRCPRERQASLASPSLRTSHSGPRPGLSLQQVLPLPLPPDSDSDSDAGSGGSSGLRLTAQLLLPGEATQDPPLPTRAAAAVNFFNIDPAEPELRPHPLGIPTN

On to `CN1CCN(c2cccc(C(=O)N3CCCC[C@@H]3c3cccc(F)c3)n2)CC1` [Example 55, [(R)-2-(3-Fluoro-phenyl)-piperidin-1-yl]-[6-(4-methyl-piperazin-1-yl)-pyridin-2-yl]-methanone], for which the melting point was 122.7 to 123 °C. Further, the inhibition at 1 µM in data set [1] came to 94.2%.
The corresponding values for `Cc1cccc([C@@H](C)N(C)C(=O)c2cccc(N3CCN(C)CC3)n2)c1` [Example 93, 6-(4-Methyl-piperazin-1-yl)-pyridine-2-carboxylic acid methyl-((R)-1-m-tolyl-ethyl)-amide] are 126 to 128 °C and 99.4%.
Regarding `O=C(c1cccc(N2CCCNCC2)n1)N1CCC[C@H](Oc2ccc(F)cc2)C1` [Example 39, (6-[1,4]Diazepan-1-yl-pyridin-2-yl)-[(S)-3-(4-fluoro-phenoxy)-piperidin-1-yl]-methanone], the melting point is 107.9 to 109 °C. Moreover, in data set [1], the inhibition at 1 µM stood at 82%.
The corresponding values for `Cc1cccc(OC2CCN(C(=O)c3cccc(C4CCN(C)C4)n3)CC2)c1` (stereo not shown) [Example 17, [6-(1-Methyl-pyrrolidin-3-yl)-pyridin-2-yl]-(4-m-tolyloxy-piperidin-1-yl)-methanone] are 89 to 90 °C and 96.4%.
With `Cc1ccc(O[C@@H]2CCCN(C(=O)c3cccc(N4CCCNCC4)n3)C2)cc1` [Example 54, (6-[1,4]Diazepan-1-yl-pyridin-2-yl)-((R)-3-p-tolyloxy-piperidin-1-yl)-methanone], the melting point came to 140 °C. In addition, the inhibition at 1 µM in data set [1] was 86.4%.
The corresponding values for `Cc1cccc(CN(C)C(=O)c2cccc(N3CCN(C)CC3)n2)c1` [Example 73, 6-(4-Methyl-piperazin-1-yl)-pyridine-2-carboxylic acid methyl-(3-methyl-benzyl)-amide] are 101 to 102 °C and 91.9%.
For `CN1CCC(c2cccc(C(=O)N3CCC(Oc4ccccc4Cl)CC3)n2)CC1` [Example 96, [4-(2-Chloro-phenoxy)-piperidin-1-yl]-(1′-methyl-1′,2′,3′,4′,5′,6′-hexahydro-[2,4′]bipyridinyl-6-yl)-methanone] the same measures were 119 to 121 °C and 85.8%.
The corresponding values for `Cc1cccc(O[C@H]2CCCN(C(=O)c3cccc(N4CCCNCC4)n3)C2)c1` [Example 44, (6-[1,4]Diazepan-1-yl-pyridin-2-yl)-((S)-3-m-tolyloxy-piperidin-1-yl)-methanone] are 184 to 185.6 °C and 99.7%.
As to `Cc1cc(F)ccc1C1CCN(C(=O)c2cccc(C3CCN(C)C3)n2)CC1` (stereo not shown) [Example 106, [4-(4-Fluoro-2-methyl-phenyl)-piperidin-1-yl]-[6-(1-methyl-pyrrolidin-3-yl)-pyridin-2-yl]-methanone], the melting point is 116.2 to 117.4 °C. Also, in data set [1], the inhibition at 1 µM came out at 93.6%.
On to `CN1CCCN(c2cccc(C(=O)N3CCCC[C@@H]3c3cccc(F)c3)n2)CC1` [Example 80, [(R)-2-(3-Fluoro-phenyl)-piperidin-1-yl]-[6-(4-methyl-[1,4]diazepan-1-yl)-pyridin-2-yl]-methanone], for which the melting point fell in the range of 155 to 156.2 °C. Further, the inhibition at 1 µM in data set [1] was found to be 91.7%.
The corresponding values for `Cc1cccc(C2CCCCN2C(=O)c2cccc(N3CCCNCC3)n2)c1` (stereo not shown) [Example 34, (6-[1,4]Diazepan-1-yl-pyridin-2-yl)-(2-m-tolyl-piperidin-1-yl)-methanone] are 138.5 to 139 °C and 95.3%.
The corresponding values for `Cc1ccccc1C1CCCCN1C(=O)c1cccc(N2CCCNCC2)n1` (stereo not shown) [Example 33, (6-[1,4]Diazepan-1-yl-pyridin-2-yl)-(2-o-tolyl-piperidin-1-yl)-methanone] are 123.3 to 124 °C and 84.6%.
Molecule `CN1CC(c2cccc(C(=O)N3CCC(Oc4ccc(F)cc4)CC3)n2)C1` [Example 97, [4-(4-Fluoro-phenoxy)-piperidin-1-yl]-[6-(1-methyl-azetidin-3-yl)-pyridin-2-yl]-methanone] showed a melting point of 141.6 to 142.9 °C. Moreover, in data set [1], the inhibition at 1 µM was 79.6%.
Molecule `CN1CCN(c2cccc(C(=O)N3CCCC[C@H]3c3ccccc3F)n2)CC1` [Example 56, [(S)-2-(2-Fluoro-phenyl)-piperidin-1-yl]-[6-(4-methyl-piperazin-1-yl)-pyridin-2-yl]-methanone] yielded a melting point of 111.7 to 112.2 °C. For the same molecule, the inhibition at 1 µM in data set [1] came to 90.7%.
`Cc1cccc(O[C@@H]2CCCN(C(=O)c3cccc(N4CCCNCC4)n3)C2)c1` [Example 48, (6-[1,4]Diazepan-1-yl-pyridin-2-yl)-((R)-3-m-tolyloxy-piperidin-1-yl)-methanone] showed a melting point of 158 to 160 °C. Further, the inhibition at 1 µM in data set [1] is 86.1%.
As for `Cc1ccccc1C1=CCN(C(=O)c2cccc(N3CCN(C)CC3)n2)CC1` [Example 24, [6-(4-Methyl-piperazin-1-yl)-pyridin-2-yl]-(4-o-tolyl-3,6-dihydro-2H-pyridin-1-yl)-methanone], the melting point lay in the range of 160.7 to 162.3 °C. Besides, the inhibition at 0.3 µM in data set [1] (0.3 μM (stated in cell), read-out: 5HT6 % inh @ 0.3 μM) turned out to be 92%.
On to `Cc1c(F)cccc1C1CCN(C(=O)c2cccc(N3CCN(C)CC3)n2)CC1` [Example 104, [4-(3-Fluoro-2-methyl-phenyl)-piperidin-1-yl]-[6-(4-methyl-piperazin-1-yl)-pyridin-2-yl]-methanone], for which the melting point was 128.6 to 129.2 °C. Moreover, the inhibition at 1 µM in data set [1] was determined as 101%.
The corresponding values for `CN1CCCN(c2cccc(C(=O)N3CC[C@H](Oc4ccccc4Cl)C3)n2)CC1` [Example 69, [(S)-3-(2-Chloro-phenoxy)-pyrrolidin-1-yl]-[6-(4-methyl-[1,4]diazepan-1-yl)-pyridin-2-yl]-methanone] are 90 to 92 °C and 97.7%.
For the molecule `O=C(c1cccc(N2CCCNCC2)n1)N1CCC[C@H](Oc2ccccc2F)C1` [Example 40, (6-[1,4]Diazepan-1-yl-pyridin-2-yl)-[(S)-3-(2-fluoro-phenoxy)-piperidin-1-yl]-methanone], the melting point lay within 158 to 159 °C. Also, the inhibition at 1 µM in data set [1] came out at 100%.
For `Cc1ccccc1O[C@@H]1CCN(C(=O)c2cccc(N3CCCNCC3)n2)C1` [Example 49, (6-[1,4]Diazepan-1-yl-pyridin-2-yl)-((R)-3-o-tolyloxy-pyrrolidin-1-yl)-methanone], the melting point lay in the range of 102 to 104 °C. Besides, the inhibition at 1 µM in data set [1] was found to be 89.9%.
`CN1CCN(c2cccc(S(=O)(=O)N3CCC(c4ccccc4F)CC3)n2)CC1` [Example 88, 1-{6-[4-(2-Fluoro-phenyl)-piperidine-1-sulfonyl]-pyridin-2-yl}-4-methyl-piperazine] had a melting point of 240.5 to 242 °C. Further, in data set [1], the inhibition at 1 µM worked out at 102%.
For `CN1CCN(c2cccc(C(=O)N3CCCC(c4ccccc4F)C3)n2)CC1` (stereo not shown) [Example 58, [3-(2-Fluoro-phenyl)-piperidin-1-yl]-[6-(4-methyl-piperazin-1-yl)-pyridin-2-yl]-methanone] the same measures were 118 to 119 °C and 88.9%.
The corresponding values for `CN1CCN(c2cccc(C(=O)N3CCCC[C@@H]3c3ccccc3F)n2)CC1` [Example 57, [(R)-2-(2-Fluoro-phenyl)-piperidin-1-yl]-[6-(4-methyl-piperazin-1-yl)-pyridin-2-yl]-methanone] are 111.7 to 112 °C and 94%.
The corresponding values for `CN1CCN(c2cccc(C(=O)N3CCC(c4ccccc4F)CC3)n2)CC1` [Example 20, [4-(2-Fluoro-phenyl)-piperidin-1-yl]-[6-(4-methyl-piperazin-1-yl)-pyridin-2-yl]-methanone] are 111 to 113 °C and 101%.
Turning to `Cc1ccc(F)cc1C1CCN(C(=O)c2cccc(N3CCN(C)CC3)n2)CC1` [Example 103, [4-(5-Fluoro-2-methyl-phenyl)-piperidin-1-yl]-[6-(4-methyl-piperazin-1-yl)-pyridin-2-yl]-methanone], the melting point was in the range of 85.1 to 86.2 °C. In data set [1], the inhibition at 1 µM was determined as 101%.
Take `Cc1cccc(O[C@H]2CCN(C(=O)c3cccc(N4CCCN(C)CC4)n3)C2)c1` [Example 68, [6-(4-Methyl-[1,4]diazepan-1-yl)-pyridin-2-yl]-((S)-3-m-tolyloxy-pyrrolidin-1-yl)-methanone]: the melting point was 78 to 80 °C. In data set [1], the inhibition at 1 µM was 98.2%.

By melting point is commonly meant the temperature of the solid-liquid transition.
